Toxic doses and inconclusive results are not listed. Rule for the calls: active = survival T/C of 150% or more; inactive = T/C below 125% in these data.
Test system: CD2F1 mice, L1210 leukemia ip, survival T/C
Assay: NCI In Vivo Anticancer Drug Screen. Data for tumor model L1210 Leukemia (intraperitoneal) in CD2F1 (CDF1) mice
Settings: endpoint: mean survival time, higher = longer survival
Outline: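 Mice carrying a transplanted tumor received test compound or vehicle alone. The value is the measurement in the treated group divided by that in the vehicle-treated control group.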

[1] = dose: 200.0 mg/kg/injection, schedule: Q04DX003 (ip), vehicle: saline with Tween-80
[2] = dose: 400.0 mg/kg/injection, schedule: Q04DX003 (ip), vehicle: saline with Tween-80
[3] = dose: 100.0 mg/kg/injection, schedule: Q01DX001 (ip), vehicle: saline
[4] = dose: 200.0 mg/kg/injection, schedule: Q01DX001 (ip), vehicle: saline
[5] = dose: 400.0 mg/kg/injection, schedule: Q01DX001 (ip), vehicle: saline
[6] = dose: 50.0 mg/kg/injection, schedule: Q01DX009 (ip), vehicle: Klucel (hydroxypropylcellulose) (HPC)
[7] = dose: 100.0 mg/kg/injection, schedule: Q01DX009 (ip), vehicle: Klucel (hydroxypropylcellulose) (HPC)
[8] = dose: 100.0 mg/kg/injection, schedule: Q04DX003 (ip), vehicle: saline with Tween-80

Measured: T/C

NC(=O)c1c(Cl)n(C2OC(CO)C(O)C2O)c2ncnc(N)c12 (stereo not drawn)
inactive: dose: 1.0 mg/kg/injection, schedule: Q01DX005 (ip), vehicle: distilled water + Tween-80 103 % of control | dose: 2.0 mg/kg/injection, schedule: Q01DX005 (ip), vehicle: distilled water + Tween-80 101 % of control | dose: 4.0 mg/kg/injection, schedule: Q01DX005 (ip), vehicle: distilled water + Tween-80 106 % of control | dose: 8.0 mg/kg/injection, schedule: Q01DX005 (ip), vehicle: distilled water + Tween-80 103 % of control | dose: 16.0 mg/kg/injection, schedule: Q01DX005 (ip), vehicle: distilled water + Tween-80 114 % of control | dose: 32.0 mg/kg/injection, schedule: Q01DX005 (ip), vehicle: distilled water + Tween-80 109 % of control

CC(=O)[O][Hg][CH]1CCCCC1O (stereo not drawn)
inactive: dose: 3.13 mg/kg/injection, schedule: Q01DX009 (ip), vehicle: saline + alcohol 98 % of control | dose: 6.25 mg/kg/injection, schedule: Q01DX009 (ip), vehicle: saline + alcohol 108 % of control

Cc1ccc(N2CCOC2=O)cc1N1CCOC1=O
inactive: dose: 25.0 mg/kg/injection, schedule: Q01DX009 (ip), vehicle: other 100 % of control | dose: 50.0 mg/kg/injection, schedule: Q01DX009 (ip), vehicle: other 105 % of control | dose: 100.0 mg/kg/injection, schedule: Q01DX009 (ip), vehicle: other 102 % of control

NNc1ccc(-c2ccc(NN)cc2)cc1
inactive: dose: 100.0 mg/kg/injection, schedule: Q01DX009 (ip), vehicle: saline with Tween-80 101 % of control | dose: 200.0 mg/kg/injection, schedule: Q01DX009 (ip), vehicle: saline with Tween-80 95 % of control | dose: 400.0 mg/kg/injection, schedule: Q01DX009 (ip), vehicle: saline with Tween-80 96 % of control

COC(=O)c1ccc(C2CCC(OC(c3ccccc3)c3ccccc3)CC2)cc1 (stereo not drawn)
inactive: [1] 89 % of control | [2] 91 % of control

Cc1nc2c(c(-c3ccccc3)n1)Cc1c(ccc3ccccc13)O2
inactive: [3] 92 % of control | [4] 98 % of control | [5] 103 % of control

CCOC(=O)/C(N=Nc1ccc(O)cc1)=C(\C)O
inactive: [6] 101 % of control | [7] 93 % of control | dose: 100.0 mg/kg/injection, schedule: Q04DX003 (ip), vehicle: acetone 95 % of control | dose: 200.0 mg/kg/injection, schedule: Q01DX009 (ip), vehicle: Klucel (hydroxypropylcellulose) (HPC) 96 % of control | dose: 200.0 mg/kg/injection, schedule: Q04DX003 (ip), vehicle: acetone 98 % of control

CC(=O)OC1COC(n2cnc3c(N)ncnc32)C(OC(C)=O)C1OC(C)=O (stereo not drawn)
inactive: [3] 108 % of control | [4] 101 % of control | [5] 90 % of control

COC1=CC=C2C3Cc4ccc(OC)c(O)c4C2(C1)CN3C (stereo not drawn)
inactive: dose: 25.0 mg/kg/injection, schedule: Q01DX009 (ip), vehicle: Klucel (hydroxypropylcellulose) (HPC) 102 % of control | [6] 104 % of control | [7] 103 % of control

C=CCOC1C=CCCC1 (stereo not drawn)
inactive: dose: 100.0 mg/kg/injection, schedule: Q04DX002 (ip), vehicle: saline 100 % of control | dose: 200.0 mg/kg/injection, schedule: Q04DX002 (ip), vehicle: saline 100 % of control | dose: 400.0 mg/kg/injection, schedule: Q04DX002 (ip), vehicle: saline 91 % of control

CCN(CC)CCN=Cc1c(O)c(O)c(C(C)C)c2cc(C)c(-c3c(C)cc4c(C(C)C)c(O)c(O)c(C=NCCN(CC)CC)c4c3O)c(O)c12
inactive: [3] 90 % of control | [4] 90 % of control | [5] 93 % of control

CC(=N\NC(=O)c1ccccc1)/C(C)=N/NC(=O)c1ccccc1
inactive: [8] 90 % of control | [1] 86 % of control | [2] 90 % of control

Cc1ccc(Nc2n[nH]c(=S)s2)cc1C
inactive: [8] 93 % of control | [1] 94 % of control | [2] 109 % of control

CC(C)Oc1ccc(N2C(=O)C(C)CNC2=S)cc1 (stereo not drawn)
inactive: dose: 75.0 mg/kg/injection, schedule: Q01DX001 (ip), vehicle: other 96 % of control | dose: 150.0 mg/kg/injection, schedule: Q01DX001 (ip), vehicle: other 97 % of control | dose: 300.0 mg/kg/injection, schedule: Q01DX001 (ip), vehicle: other 96 % of control

Cc1ccc(NC(=O)Nc2ccccc2C(N)=O)cc1
inactive: dose: 100.0 mg/kg/injection, schedule: Q01DX009 (ip), vehicle: saline sonified 97 % of control | dose: 200.0 mg/kg/injection, schedule: Q01DX009 (ip), vehicle: saline sonified 98 % of control | dose: 400.0 mg/kg/injection, schedule: Q01DX009 (ip), vehicle: saline sonified 100 % of control
